Measurements: patent publication US20230293451A1, “STIMULATION OF HAIR GROWTH” (The General Hospital Corporation, priority 2020, published 2023)
“Also recorded” adds a separate entry of the source.

How the values were obtained:
[1] = system: mouse skin with hair follicles arrested in telogen; experiment: Topical administration of novel compounds to pre-sensitized mice (Example 2); assay type: in vivo, C57BL/6 mice; details: pre-sensitized with 2% on chest; 2% topical on days 3, 5 and 7; images day 17
From the text: In order to compare the effect of SABDE, CF3-SABDE or CC1-SABDE (see FIG. 2a) on hair growth, 3 female C57BL/6 mice, 8 weeks old, were pre-sensitized with 2% of each compound on the chest 4 days before the first treatment and both flanks were shaved (Day 0). On days 3, 5, and 7, 2% of SABDE, CF3-SABDE or CC1-SABDE was topically administered to the shaved left flank of one mouse each using a cotton-tipped applicator. Images were taken on day 17 in order to visualize hair growth and inflammation (see FIGS. 2B and 2C).

[2] = system: mouse skin with hair follicles arrested in telogen; experiment: Comparison of 100 mM SADBE and CF3-SADBE topical treatment (Examples 3 and 5); assay type: in vivo, C57BL/6 mice; details: 100 mM topical; for visible anagen: by day 10; for anagen induction / visible inflammation: by day 14; for hair growth on the treated flank: by day 17
From the text: (§1) To measure the effect of SABDE and DPCP (see FIG. 1a) on hair growth, 6 female C57BL/6 mice, 8 weeks old, were shaved on both flanks 4 days before topical administration of the compounds (Day −4). During this period, the mice were visually monitored to confirm absence of hair growth and to confirm the entire shaved area is arrested in the telogen phase as expected from 8 weeks old mice. On the day of administration (day 0), 2% SABDE or 2% DCPC was topically administered to the shaved left flank of 3 mice each using a cotton-tipped applicator (see FIG. 1B). Images were taken on day 9 and day 16 in order to visualize hair growth and inflammation (see FIG. 1c). Skin pigmentation intensity was quantified by ImageJ. The anagen induction index is calculated as the change in skin pigmentation intensity (a marker of anagen) on the treated side relative to (i.e., as a percent of) the untreated side (see FIG. 1d).
(§2) The anagen induction index can be determined by any methods known in the art, including, for example, histological methods (e.g., H&E, other stains, or without stains) and/or other visual morphology methods. (e.g., methods to measure the biological parameters of hair growth. This value is then normalized to the specific experiment (individual mice) and shown as relative anagen induction by skin pigmentation intensity (a marker of anagen) on the treated side as a percent of the baseline untreated side. Analysis of the anagen (or other phases) can be performed by any method known in the art, including, e.g., a tissue biopsy and/or morphological analysis.
(§3) Inflammation can be measured by known methods such as histological grading, visual identification, and quantification of lesions. The number, size, and extent of the cutaneous lesions present (e.g., see blue * in FIG. 3a) can be visualized and quantified using any known method in the art, including, for example, histological methods (e.g., H&E, other stains, or without stains) and/or other visual morphology methods.
The effects of a topical treatment dose of SADBE or CF3-SADBE were measured using the methods describe in Example 1. In FIG. 3, the topical treatment dose used was 50 uL of 100 mM SADBE or CF3-SADBE.
The effects on anagen induction and inflammation of topical treatment with CF3-SADBE at 100 mM were measured and visualized using the methods described in Example 1.

[3] = system: hair growth in shaved mice; experiment: Hair growth in animal models after topical delivery of hapten derivatives (general statements); assay type: in vivo
[4] = system: resting telogen hair follicles; experiment: Induction of anagen phase by CF3-SADBE, H&E staining of treated skin (Example 4); assay type: in vivo, mouse; details: 100 uL of 100 mM on left flank; right flank untreated
From the text: as §1
The effects of a topical treatment dose of CF3-SADBE was measured and visualized using the methods described in Example 1. The gross appearance of the mouse treated with CF3-SADBE was imaged (see FIG. 4a). CF3-SADBE was administered on the left flank at a dose of 100 uL of 100 mM CF3-SADBE (see FIG. 4B). The right flank was left untreated (see FIG. 4C).

[5] = system: mouse skin with hair follicles arrested in telogen; experiment: Topical administration of SADBE and DPCP to shaved flank of mice (Example 1); assay type: in vivo, C57BL/6 mice; details: for induction of anagen and hair growth: 2% topical, single administration day 0 to shaved left flank, images day 9 and day 16; for hair growth in a mammal without an autoimmune disease: mouse, in vivo
From the text: as §1, §2, §3

O=c1c(OCCCCCl)c(OCCCCCl)c1=O [CC1-SABDE]
anagen and hair growth [1]: neither produced inflammation nor anagen and hair growth | inflammation [1]: neither produced inflammation nor anagen and hair growth

O=c1c(OCCCC(F)(F)F)c(OCCCC(F)(F)F)c1=O [CF3-SADBE, squaric acid di(trifluromethyl)propyl ester]
visible anagen [2]: induced visible anagen | anagen induction [2]: induces anagen | visible inflammation [2]: much less visible inflammation | hair growth on the treated flank [2]: Robust hair growth | anagen and hair growth [1]: induce anagen and hair growth at least as efficiently as SADBE | inflammation [1]: less inflammation | efficacy as measured by time of anagen induction [3]: earlier induction of anagen | inflammation relative to known treatments [3]: less inflammation than known treatments; also recorded: somewhat diminished inflammation | hair growth promoting activity ([3]; animal models, after prior shaving): accelerated hair growth relative to known treatments | hair follicle phase in treated skin (H&E staining) [4]: hair follicles in anagen

O=c1c(-c2ccccc2)c1-c1ccccc1 [DPCP, diphenylcyclopropenone]
induction of anagen and hair growth [5]: induction of anagen and hair growth | hair growth in a mammal without an autoimmune disease [5]: increased hair growth

CCCCOc1c(OCCCC)c(=O)c1=O [SADBE]
visible anagen [2]: does not; also recorded: did not induce visible anagen | anagen induction [2]: induces anagen | visible inflammation [2]: substantial inflammation; also recorded: more visible inflammation | hair growth on the treated flank [2]: Robust hair growth | induction of anagen and hair growth [5]: induction of anagen and hair growth | hair growth in a mammal without an autoimmune disease [5]: increased (e.g., promoted) hair growth | inflammation [1]: inflammation in the SADBE treated flank
